Test results: BindingDB's records for patent US10301272 (Phenex Pharmaceuticals, 2019)

Molecular target: T1, Isoform 2 of Nuclear receptor ROR-gamma (RORgT) (Homo sapiens, UniProt P51449)
T1 sequence (P51449 whole entry): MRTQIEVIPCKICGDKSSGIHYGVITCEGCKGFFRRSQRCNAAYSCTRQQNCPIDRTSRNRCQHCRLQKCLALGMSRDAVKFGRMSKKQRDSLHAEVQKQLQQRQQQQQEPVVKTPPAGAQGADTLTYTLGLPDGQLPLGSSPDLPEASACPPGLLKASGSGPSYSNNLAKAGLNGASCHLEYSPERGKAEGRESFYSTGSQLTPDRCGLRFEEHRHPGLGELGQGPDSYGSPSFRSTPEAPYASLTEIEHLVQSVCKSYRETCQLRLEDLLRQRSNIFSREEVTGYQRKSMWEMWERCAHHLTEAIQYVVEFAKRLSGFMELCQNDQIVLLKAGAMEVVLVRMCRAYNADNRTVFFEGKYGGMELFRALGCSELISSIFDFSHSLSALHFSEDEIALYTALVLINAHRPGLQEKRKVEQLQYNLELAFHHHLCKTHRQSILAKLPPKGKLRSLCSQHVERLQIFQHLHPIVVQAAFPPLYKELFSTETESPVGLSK
Test: RORgamma Gal4 Reporter Gene Assay (FRET)
Procedure: Determination of a ligand mediated Gal4 promoter driven transactivation to quantify ligand binding to RORγ was performed as follows: DNA encoding three different RORγ protein fragments was cloned into vector pCMV-BD (Stratagene). Expression was under control of a CMV promoter and as fusion to the DNA-binding domain of the yeast protein GAL4. Other vectors used were pFR-Luc (Stratagene) as regulated reporter plasmid. pFR-Luc contains a synthetic promoter with five tandem repeats of the yeast GAL4 binding sites that control expression of the Photinus pyralis (American firefly) luciferase gene. In order to improve experimental accuracy the plasmid pRL-CMV was cotransfected. pRL-CMV contains the constitutive CMV promoter, controlling the expression of the Renilla reniformis luciferase. […] The medium is supplemented with 10% fetal bovine serum, 0.1 mM nonessential amino acids, 1 mM sodium pyruvate, 1% Glutamax and 100 units Penicilin/[…] per mL at 37° C. in 5% CO2.For the assay, […] cells were plated per well in 96 well plates in 100 μL per well, incubated over night at 37° C. in 5% CO2. […] About 4 h after addition of the transfection solution, fresh Minimal Essential Medium (MEM, same composition as used for plating cells, but without serum) was added.

| Compound | IC50 [nM] |
| --- | --- |
| CC(C)(C)NS(=O)(=O)c1ccc(-c2sc(C(=O)NC3CCOCC3)nc2CC2CCCCC2)cc1C(F)(F)F [US10301272, Example 9] | 63.1 |
| CC(C)(O)CNC(=O)c1nc(CC2CCC2)c(-c2ccc(S(=O)(=O)NC(C)(C)C)c(Cl)c2OC(F)F)s1 [US10301272, Example 21/1] | 251 |
| CCOC(=O)c1nc(Cc2ccccc2)c(-c2ccc(S(=O)(=O)NC(C)(C)C)c3ccccc23)s1 [US10301272, Example 202] | 63.1 |
